From patent US20060128792A1, “Deguelin as a chemopreventive agent for lung cancer” (priority 2002, published 2006)
“And” between values parts separate entries of the source, which are not always exact repeats. Equal values may be shown once.

What was measured:
A549 = assay: MTT assay, growth inhibition by deguelin or deguelin derivatives; assay type: cell-based; conditions: A549, 3 days
1799 cells [1] = assay: Cell cycle analysis by flow cytometry (propidium iodide); assay type: cell-based; conditions: 3 days
Method: (§1) Cell Cycle Analysis. Cells were plated on 10-cm dishes 1 day before treatment. After treatment with deguelin for 3 days, floating and adherent cells were harvested by trypsinization, fixed with 1% paraformaldehyde and 70% ethanol, stained with propidium iodide PI), and subjected to flow cytomnetric analysis to determine the percentages of cells in specific phases of the cell cycle (G1, S, and G2/M) as described previously (Sun et al., 1997).

NHBE cells = assay: as above; assay type: cell-based; conditions: 3 days
Method: as §1

1799 cells [2] = assay: Apoptosis assay (TUNEL, APO-BRDU kit, flow cytometry; DNA fragmentation); assay type: cell-based; conditions: for apoptosis in 1799 cells (TUNEL, flow cytometry): 3 days
Method: Apoptosis assay. Normal, premalignant, and malignant HBE cells were exposed to v various doses of deguelin for 3 days. […] Both adherent and floating cells were combined for the assessment of apoptosis using the APO-BRDU staining kit (Phoenix Flow Systems, San Diego, Calif.). Briefly, floating and attached cells dispersed with trypsin-EDTA were pelleted, washed, and fixed by 1% paraformaldehyde followed by 70% ethanol. The fixed cells were washed and incubated with DNA-labeling solution containing terminal deoxynucleotidyl transferase (TdT) reaction buffer, TdT enzyme, and bromodeoxyuridine triphosphate (Br-dUTP). Cells were rinsed, resuspended with fluorescein-PRB-I antibody solution, and analyzed by flow cytometry in the presence of PI/RNase solution. All analyses were performed based on 3000 to 10,000 events using a FACScan flow cytometer (Becton Dickinson, San Jose, Calif.) equipped with a 488-nm argon ion laser and CellQuest software. A dual display of DNA area (linear red fluorescence) and Br-dUTP incorporation (FITC-PRB-1) was used to determine the percentage of apoptotic cells.
The percentage of dead cells was determined by fluorescent-activated cell sorting (FACS) analysis of PI-stained nuclei. Apoptosis was also determined by the detection of nucleosomal DNA fragmentation, which was measured using the TACS apoptotic DNA Jaddering kit (Trevigen, Inc., Gaithersburg, Md.) according to the manufacturer's protocol. […] Apoptosis was analyzed using the APO-BRDU staining kit (Phoenix Flow Systems) as described above.

[3] = test system: bFGF-induced angiogenesis; assay: Matrigel plug assay, bFGF-induced angiogenesis; assay type: in vivo, nude mice; conditions: 5 nmole deguelin plus bFGF, seven days
Method: Inhibition of angiogenesis by deguelin was also evaluated using the Matrigel™ plug assay, an established in vivo angiogenesis model, using nude mice. Matrigel alone was used as a negative control, 100 ng/ml bFGF and 72 units/ml heparin in a vehicle of 0.1% BSA/PBS (bFGF) for a positive control, 5 nmole deguelin alone, and 5 nmole deguelin plus bFGF were included. Seven days after injection, mice were sacrificed. […] 1, 1 and 10 μM concentrations of deguelin in these cells. All of these findings indicated the anti-angiogenic activity of deguelin.

H1299 NSCLC cells = assay: Sensitization to chemotherapeutic agents and irradiation, MTT analysis; assay type: cell-based; conditions: deguelin 100 nM 2 days; 10 nM paclitaxel, 50 nM doxorubicin or 4Gy irradiation for 1 day
Method: FIG. 10. […] Results are expressed relative to the density of untreated cells. Bars, means±SD of a representative experiment done in six identical wells from five independently performed experiments.
Additional studies were conducted to determine whether deguelin can sensitize cells resistant to a chemotherapeutic agent. H1299 NSCLC cells were incubated with deguelin (100 nM) for 2 days.

NHBE = assay: MTT assay, growth inhibition / viability of normal HBE cells; conditions: for Avg. % con / MTT value, mean of replicates (unheaded line) / MTT value, replicate (unheaded line): NHBE, 3 days
Method: Cells and Cell Cultures. […] Normal HBE (NHBE) cells were purchased from Clontech (Palo Alto, Calif.). […] Cells were grown on tissue culture plasticware (Falcon; Bector, Dickinson, Bedford, Mass.) at 37° C. in a humidified atmosphere with 5% C02. For the analyses of growth inhibition, cell cycle, and induction of apoptosis by deguelin, NHBE cells, HBE cell lines, and squamous HBE cells were cultured in KSFM (Life Technologies) containing 2 μg/ml of EGF and bovine pitutary extract.
Cell Treatment with Deguelin and Determination of Growth Inhibition. To measure the effects of deguelin on cell proliferation, NHBE, 1799 cells, 1198 cells, and 1170 cells were transferred onto 96-well plates at densities ranging from 2×10^3 to 4×10^3 cells/well. After 1 day, the cells were changed to the fresh medium containing various concentrations of deguelin dissolved in DMSO (final concentration, 0.1%). Control cultures received 0.1% dimethyl sulfoxide (DMSO) as did the deguelin-treated cultures. […] After 1 day of infection, cells were treated with 10^−7 M or 10^−6 M of deguelin, or 0.1% DMSO as a control, and then incubated for 2 days. […] Six replicate wells were used for each analysis.

COc1cc2c(cc1OC)[C@@H]1C(=O)c3ccc4c(c3O[C@@H]1CO2)C=CC(C)(C)O4 [Deguelin]
Avg. % con (A549; deguelin 10^−6M): 0.13 % con | MTT value, mean of replicates (unheaded line) (A549; deguelin 10^−6M): 0.060 | MTT value, replicate (unheaded line) (A549; deguelin 10^−6M): 0.057 (2×) and 0.066 | Avg. % con (A549; deguelin 10^−8M): 0.83 % con | MTT value, mean of replicates (unheaded line) (A549; deguelin 10^−8M): 0.382 | MTT value, replicate (unheaded line) (A549; deguelin 10^−8M): 0.381 (2×) and 0.385 | Avg. % con (A549; deguelin 10^−10M): 0.88 % con | MTT value, mean of replicates (unheaded line) (A549; deguelin 10^−10M): 0.408 | MTT value, replicate (unheaded line) (A549; deguelin 10^−10M): 0.375 and 0.422 and 0.427 | Avg. % con (A549; deguelin 10^−12M): 0.89 % con | MTT value, mean of replicates (unheaded line) (A549; deguelin 10^−12M): 0.411 | MTT value, replicate (unheaded line) (A549; deguelin 10^−12M): 0.416 and 0.404 and 0.412 | 1799 cells accumulated at the G2/M phase (1799 cells [1]; 10^−7 M deguelin): 40.2% | 1799 cells accumulated at the G2/M phase (1799 cells [1]; 10^−8 M deguelin): 17.3% | change in NHBE cell cycle (NHBE cells): did not induce detectable change | induction of apoptosis, Ad5CMV-Myr.Akt.HA-infected 1799 cells (1799 cells [2]; 10^−7 M deguelin, 2 days): less than 10% | induction of apoptosis, uninfected or empty virus-infected 1799 cells (1799 cells [2]; 10^−7 M deguelin, 2 days): About 40% | apoptosis in 1799 cells (TUNEL, flow cytometry) (1799 cells [2]; 10^−7 M deguelin): more than 90% | apoptosis in 1799 cells (TUNEL, flow cytometry) (1799 cells [2]; 10^−8 M deguelin): 68.5% | DNA fragmentation in 1799 cells (1799 cells [2]; three days of treatment, dose-dependent): induced the generation of nucleosomal-sized ladders of DNA fragments | bFGF-induced angiogenesis in Matrigel plugs [3]: markedly inhibit | sensitization to chemotherapeutic agents (H1299 NSCLC cells): sensitizes cancer cells to chemotherapeutic agents | effect on NHBE viability (NHBE; MTT assay, 10^−9 M to 10^−7 M, up to 3 days): minimal effect | Avg. % con (NHBE; deguelin 10^−6M): 0.23 % con | MTT value, mean of replicates (unheaded line) (NHBE; deguelin 10^−6M): 0.099 | MTT value, replicate (unheaded line) (NHBE; deguelin 10^−6M): 0.129 and 0.082 and 0.087 | Avg. % con (NHBE; deguelin 10^−8M): 0.53 % con | MTT value, mean of replicates (unheaded line) (NHBE; deguelin 10^−8M): 0.229 | MTT value, replicate (unheaded line) (NHBE; deguelin 10^−8M): 0.249 and 0.227 and 0.21 | Avg. % con (NHBE; deguelin 10^−10M): 0.81 % con | MTT value, mean of replicates (unheaded line) (NHBE; deguelin 10^−10M): 0.347 | MTT value, replicate (unheaded line) (NHBE; deguelin 10^−10M): 0.355 and 0.341 and 0.346 | Avg. % con (NHBE; deguelin 10^−12M): 0.90 % con | MTT value, mean of replicates (unheaded line) (NHBE; deguelin 10^−12M): 0.386 | MTT value, replicate (unheaded line) (NHBE; deguelin 10^−12M): 0.417 and 0.365 and 0.377
